Assay results: paper PMC3332081, “Cysteamine Suppresses Invasion, Metastasis and Prolongs Survival by Inhibiting Matrix Metalloproteinases in a Mouse Model of Human Pancreatic Cancer” (PLoS ONE, 2012)
Blank lines part the entries; values can stand above or below the molecule they belong to.

Assays:
[1] = cited from earlier work
MMPs = test: fluorimetric MMP inhibitor profiling, span over all MMPs; format: biochemical; settings: MMP-1, -2, -3, -7, -8, -9, -10, -12, -13, -14; read-out: IC50 against each MMP enzymatic activity (span over the MMPs)
Method: (§1) After administration of fluorogenic substrate, a velocity of fluorescent increase was measured using excitation/emission = 320/405 nm.

[2] = test system: pancreatic cancer cell lines; test: matrigel invasion assay; format: cell-based, human
Method: Cell invasion was assayed in BD BioCoat Matrigel invasion chambers (BD Biosciences; 24 wells, 8 µm pore size) as described previously. Briefly, cells were incubated with different concentrations of cysteamine (0–5 mM) for 24 hours. Non-invaded cells were removed from the upper surface of the membrane with a cotton swab, and cells on the lower surface of the membrane were fixed and stained with H&E. Three random fields per chamber were counted. Data were shown as mean ± S.D. of triplicate determinations.

[3] = test system: pancreatic cancer cell lines; test: cell migration (wound healing) assay; format: cell-based, human
Method: Cell migration assay is a classical wound healing assay. For this assay, cells were cultured in 10 cm petri dishes until they were completely confluent. Cell monolayers were scraped with a sterile yellow micropipette tip and washed with PBS three times; the cells were then cultured in medium containing 0–5 mM of cysteamine for 24 hours. Five random fields were selected and pictures were taken using an inverted microscope. The average area (mm^2) of the gap between the cell layers was calculated using IPLab imaging software (BD Biosciences-Bioimaging, Rockville, MD).

HS766T [4] = test: cell viability assay (trypan blue count), HS766T; format: cell-based, human; settings: 24 and 48 hour treatment, viable cell count
Method: (§2) Cell viability of pancreatic cancer cell lines was measured by counting viable cell numbers. Briefly, 3×10^5 cells were seeded per well in a 6-well plate with 2.0 milliliter complete medium and incubated overnight for plating. The cells were treated with different concentrations of cysteamine for 24–48 hours. After incubation, cells were detached with trypsin, washed and stained with 0.4% trypan blue. Cell number was manually counted using a hemocytometer and presented as number of viable cells per milliliter.

MIA-PaCa2 [5] = test: cell viability assay (trypan blue count), MIA-PaCa2; format: cell-based, human
Method: as §2

[6] = test system: total MMPs activity in pancreatic cancer cell lines; test: total MMPs activity in lysates of treated cells (fluorogenic substrate); format: cell-based, human; settings: two representative pancreatic cancer cell lines, 0–5 mM, 24 hours
Method: (§3) MMPs activity was measured by Mca-KPLGL-Dpa-AR-NH2 Fluorogenic Peptide Substrate (R&D systems, Emeryville, CA). Total cell protein from each pancreatic cancer cell line was collected using lysis buffer (containing 50 mM Tris-HCl, 10 mM CaCl2, 0.05% Brij35 and 0.25% Triton-X) without an MMP inhibitor. Substrate and 10 µg of total cell protein in the buffer were mixed in a black-wall 96-well plate. After 1 hour incubation, fluorescence units were determined using excitation/emission = 320/405 nm.

MMP-9 [7] = test: MMP-9 protein level in treated cells (ELISA); format: cell-based, human; settings: 5 mM (highest concentration), 24 hours, both cell lines
Method: (§4) The MMP-9 protein level was determined using Human total MMP-9 DuoSet kit (R&D systems, Emeryville, CA) following the manufacturer's instruction. Ten microgram of total protein was aliquoted in each well and the MMP-9 concentration was determined by the colorimetric method.

MMP-9 [8] = test: MMP-9 mRNA in treated cells (qRT-PCR); format: cell-based, human; settings: 5 mM (highest concentration), 24 hours, both cell lines
Method: (§5) Quantitative reverse transcription-PCR (qRT-PCR) was performed as described previously using QuantiTect SYBR Green PCR Kits (QIAGEN, Valencia, CA). Gene specific primers for human MMP-9, MMP-12, MMP-14 and β-actin were either purchased from QIAGEN or synthesized at the CBER core facility. Gene expression was normalized to β-actin before the fold change in gene expression was determined.

MMP-12 [9] = test: MMP-12 mRNA in treated cells (qRT-PCR); format: cell-based, human; settings: 24 hours, highest concentration
Method: as §5

MMP-14 = MMP-14 mRNA in treated cells (qRT-PCR); format: cell-based, human; settings: 24 hours, highest concentration
Method: as §5

MMP-9 [10] = test: gelatin gel zymography of treated cells; format: cell-based, human; settings: cell lysates after 24 hours
Method: (§6) Gelatin gel zymography was performed on cell lysates from HS7666 and MIA-PaCa2 pancreatic cancer cell line with or without culture with different concentration of cysteamine essentially as described by D'Angelo et al. Briefly, 50 µg of total protein was electrophoresed on 10% SDS-PAGE containing 0.1% gelatin as substrate. After washing with 1% Triton X-100 in 50 mM Tris/HCl, pH 7.5 for 1 hr to remove SDS, the gels were incubated overnight at 37 °C in 50 mM Tris/HCl, pH 7.5, containing 150 mM NaCl, 10 mM CaCl2 and 0.1% Triton X-100, prior to staining with simply blue safe stain. The gels were washed with deionized water at room temperature. […] Relevant band intensities were quantified by scanning densitometric analysis and normalized to cell number.

HS766T [11] = test: orthotopic pancreatic cancer model, HS766T; format: in vivo, nude nu/nu mice
Method: (§7) Female nude nu/nu mice between ages 5 and 6 weeks were maintained in a barrier facility in HEPA-filtered rack. All animal studies were conducted under approved protocol #2000–06 by the CBER Institutional Animal Care and Use Committee in accordance with the principles and procedures outlined in the NIH Guideline for the Care and Use of Laboratory Animals. For orthotopic tumor cell injection, the pancreas was carefully exposed, and 2.0×10^6 of MIA-PaCa2 and HS766T cells were injected into the organ. The pancreas was then returned to the peritoneal cavity, and the abdominal wall and skin were closed with skin clips,[30]. From day 4 after tumor implantation, increasing doses of cysteamine (0, 25, 100, or 250 mg/kg/day) were subcutaneously injected twice a day until the end of the experiment. At day 30, mice were sacrificed and the number of metastatic nodules visible by naked eye and whose sizes were >5 mm in diameter counted. The total weight of primary tumor and metastatic nodules were also measured. Pictures were taken immediately after sacrificing the animals. Additionally, mouse survival time was monitored in an independent experiment. Mice were sacrificed when they had severe ascites or cachexia. Mice in both tumor models were weighed at day 10 and day 25 after Cysteamine treatment.

MIA-PaCa2 [12] = test: orthotopic pancreatic cancer model, MIA-PaCa2; format: in vivo, nude nu/nu mice
Method: as §7

[13] = safety in tumor-bearing mice (body weight, serum enzymes, histology); format: in vivo, nude nu/nu mice
Method: as §7
Mouse blood was collected from the tail vein. Serum levels of alanine aminotransferase (ALT), creatine kinase (CK), aldolase and creatinine (Cr) were measured using different kits obtained from Pointe Scientific, Inc. (Canton, MI) and Caldon Biotech, Inc. (Vista, Ca), following the manufacturer's instruction.

[14] = test system: MMPs activity in primary orthotopic tumors (HS766T and MIA-PaCa2); test: MMP activity in primary orthotopic tumors (fluorogenic substrate); format: in vivo, nude nu/nu mice; settings: 100 and 250 mg/Kg, day 30
Method: as §3
(§8) When mice were sacrificed at day 30, primary tumors were collected. For extraction of total protein, the tumor was soaked with lysis buffer and homogenized using TissueRuptor (QIAGEN); the supernatant was collected. Total RNA was extracted using FastRNA pro green kit (MP Biomedicals, Solon, OH) following the manufacturer's instructions. MMP activity, gelatin hydrolyzing MMP activity and the mRNA and protein levels of MMP-9 were determined as mentioned above.

MMP-9 [15] = test: MMP-9 mRNA in primary tumors (qRT-PCR); format: in vivo, nude nu/nu mice; settings: tumors harvested at day 30
Method: as §5, §8

MMP-9 [16] = test: MMP-9 protein in primary tumors (ELISA); format: in vivo, nude nu/nu mice; settings: tumors harvested at day 30
Method: as §4, §8

MMP-9 [17] = test: zymography of primary tumors; format: in vivo, nude nu/nu mice; settings: tumors harvested at day 30
Method: as §6, §8

[18] = oral, every 6 hours at 60 to 90 mg/kg of body weight per day; cited from earlier work
MMP-12 [19] = target: T1, MMP-12 (Homo sapiens, UniProt P39900); test: fluorimetric MMP inhibitor profiling, MMP-12; format: biochemical; settings: 30 minutes preincubation, fluorogenic substrate
T1 construct: purchased Enzo Life Science, Farmingdale, NY
T1 sequence (P39900 106-470): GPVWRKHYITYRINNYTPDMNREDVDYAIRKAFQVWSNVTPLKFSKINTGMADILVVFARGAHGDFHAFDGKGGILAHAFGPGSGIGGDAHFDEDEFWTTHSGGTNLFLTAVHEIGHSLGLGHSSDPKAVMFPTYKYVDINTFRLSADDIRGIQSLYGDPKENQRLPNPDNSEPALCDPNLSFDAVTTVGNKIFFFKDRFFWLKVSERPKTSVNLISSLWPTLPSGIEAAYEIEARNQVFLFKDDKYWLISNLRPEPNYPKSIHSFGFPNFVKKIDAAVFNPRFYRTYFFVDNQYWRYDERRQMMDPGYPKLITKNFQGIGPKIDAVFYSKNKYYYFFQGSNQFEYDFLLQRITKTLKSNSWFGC
Method: as §1

[20] = design: method as in PMID 11060801; settings: cited from earlier work

Compound: CNC(=O)[C@@H](NC(=O)[C@H](CC(C)C)[C@H](O)C(=O)NO)C(C)(C)C [marimastat]
clinical toxicity ([1]; higher dosage, patients with breast cancer metastasis): high musculoskeletal toxicities

Compound: NCCS [Cysteamine]
IC50 (MMPs): 38 to 460 µM
lowest concentration that significantly inhibited cell invasion ([2]; all 10 pancreatic cancer cell lines, 24 hours): 0.05 mM
concentration that sufficiently inhibited cancer cell invasion in vitro ([2]; in vitro): 50 µM
concentration at which cell migration was significantly inhibited ([3]; all 10 cell lines, 24 hours): ≥ 0.05 mM
concentration that sufficiently inhibited cancer cell migration in vitro ([3]; in vitro): 50 µM
concentration showing cell toxicity (HS766T [4]): > 12.5 mM
concentration showing cell toxicity (MIA-PaCa2 [5]; MIA-PaCa2, 24 and 48 hour treatment, viable cell count): > 12.5 mM
concentrations that caused no toxicity to cells (abstract) (MIA-PaCa2 [5]; cells not named in the abstract, viability tested in MIA-PaCa2): < 25 mM
total MMP activity in treated cells [6]: inhibited MMP activity
MMP-9 protein level (MMP-9 [7]): modestly increased
MMP-9 mRNA level (MMP-9 [8]): modestly increased
MMP-12 mRNA (MMP-12 [9]): modest increase
MMP-14 mRNA (MMP-14): modest increase
zymographic gelatin hydrolyzing activity, pro and active MMP-9 (MMP-9 [10]): decreased significantly in a dose dependent manner
HS766T metastasis number, average (HS766T [11]; 250mg/kg s.c., day 30, lesions ≥ 5 mm, average of 5 mice): 3.6
decrease of the number of metastases of HS766T tumor (HS766T [11]; 250 mg/kg/day s.c., day 30, versus control): ~90%
development of ascites (HS766T [11]; HS766T model, 100 and 250 mg/kg/day): no mice developed ascites
dose at which mouse survival time was significantly prolonged (HS766T [11]; HS766T model, Kaplan-Meier, s.c. twice a day from day 4): ≥ 100 mg/kg/day
size and weight of the primary tumors, control versus treated groups (HS766T [11]; HS766T model, day 30): did not show any difference
development of ascites (MIA-PaCa2 [12]; MIA-PaCa2 model, 100 and 250 mg/kg/day): no mice developed ascites
dose at which mouse survival time was significantly prolonged (MIA-PaCa2 [12]; MIA-PaCa2 model, Kaplan-Meier, s.c. twice a day from day 4): ≥ 100 mg/kg/day
size and weight of the primary tumors, control versus treated groups (MIA-PaCa2 [12]; MIA-PaCa2 model, day 30): did not show any difference
decrease of the total weight of metastatic nodules of MIA-PaCa2 tumor (MIA-PaCa2 [12]; highest dose (250 mg/kg/day) s.c., day 30, versus control): ~90%
organ toxicity by histological examination ([13]; liver, kidney, brain, heart, lung, day 30): no organ toxicity was detected
dose tolerated without visible, biochemical or histological evidence of toxicity ([13]; mice, s.c.): up to 250 mg/kg/day
serum alanine aminotransferase (ALT) ([13]; mouse, in vivo): no significant differences
serum aldolase ([13]; mouse, in vivo): no significant differences
serum creatine kinase (CK) ([13]; mouse, in vivo): no significant differences
serum creatinine (Cr) ([13]; mouse, in vivo): no significant differences
MMPs activity in primary orthotopic tumors [14]: decreased MMPs activity
MMP-9 mRNA level in primary tumors (MMP-9 [15]): did not affect
MMP-9 protein level in primary tumors (MMP-9 [16]): did not affect
zymography for MMP-9, gelatinase activity in tumors (MMP-9 [17]): dose dependent decrease in gelatinase activity
cysteamine plasma level [18]: ~50 µM
adverse effects in subjects [1]: only gastrointestinal symptoms

IC50 (MMP-12 [19]): 12 nM
Compound: CNC(=O)[C@H](Cc1ccccc1)NC(=O)[C@H](CC(C)C)[C@H](CSc1cccs1)C(=O)NO [Batimastat]
oral bioavailability [20]: poor oral bioavailability
